In patent publication US20060205636A1, “Oxytocin as cardiomyogenesis inducer and uses thereof” (priority 2002, published 2006):
“Also recorded” adds a separate entry of the source.

Columns and labels:
[1] = tested on: OTR; test: OTR expression in P19 cells (immunocytochemistry, Western blot, RT-PCR); format: cell-based, mouse; conditions: for OTR expression (protein and mRNA) after treatment: DMSO 0.5%, OT 10^−7 M or OTA 10^−7 M alone; for early OTR induction (RT-PCR): second day of differentiation protocol, preliminary results
Description: (§1) For immunocytofluorescence studies, cells were grown onto glass coverslips coated with 0.1% gelatin. They were then fixed by 20-min incubation in PBS containing 4% paraformaldehyde, rinsed in PBS and stored at 4° C. in this buffer until used. All subsequent steps of permeabilization, washing and incubation with antibodies were performed at room temperature. Fixed cells were permeabilized for 10 min in PBS containing 0.005% saponin, blocked for 60 min in PBS-BSA-saponin (PBS containing 1% bovine serum albumin and 0.005% saponin), incubated for 45 min with the primary antibody diluted 1/50 and for 45 min with a fluorescein-conjugated swine anti-goat IgG antibody (Biosource International, Camarillo, Calif.) diluted 1/1000. PBS-BSA-saponin was used for washing between incubations and antibodies were diluted in the same buffer but containing 1.5% normal swine serum (Jackson Immuno Research Laboratories Inc., West Grove, Pa.). Coverslips were mounted in PBS containing 50% glycerol, and immediately examined under the microscope. The primary antibodies were all from Santa Cruz Biotechnology, Inc. (Santa Cruz, Calif.) and produced in goat: antibody C-20 against OT receptor (OTR), antibody K-16 against sarcomeric myosin heavy chain (MHC), and antibody N-19 against dihydropyridine receptor-alphal (DHPR-alphal).
Total cellular RNA was extracted with TRIzol® Reagent (Invitrogen Life Technologies, Burlington, Ontario, Canada), and poly(A)^+mRNA was affinity purified from 200 μg of total RNA onto Oligotex® mRNA columns (Qiagen, Mississauga, Ontario, Canada), as per the manufacturers' instructions. First-strand cDNA was synthesized in a final volume of 40 μl containing first-strand buffer, 3 μg of cellular RNA, 4 μl of hexanucleotide primers (Amersham-Pharmacia, Baie d'Urfé, Quebec, Canada), and avian myeloblastosis virus reverse transcriptase (12 units/μg RNA; Invitrogen). First-strand cDNA (5 μl) was then used for PCR amplification with OTR, ANP or GAPDH exon-specific oligonucleotide primers in a Robocycler Gradient 40 thermocycler (Stratagene, La Jolla, Calif.). Sequences of mouse OTR and ANP genes have been described (26, 34). Conditions for RT-PCR analysis of mouse OTR were adapted from Wagner et al. (6, 7). For all PCR studies the number of cycles used was within the linear range of amplification. The OTR sense and antisense primers were respectively the 22-bp 5′-[…]-3′ (SEQ ID NO:9) and the 23-bp 5′-[…]-3′ (SEQ ID NO:10). Amplification was performed over 32 cycles, each involving 1 min at 94° C., 1.5 min at 62° C. and 1.5 min at 72° C., and was terminated by a 5-min final extension at 72° C. The ANP antisense and sense primers were respectively the 24-bp 5′-[…]-3′ (SEQ ID NO:11) and the 20-bp 5′-[…]-3′ (SEQ ID NO:12). Amplification was performed over 25-30 cycles, each involving 1 min at 94° C., 1 min at 65° C. and 3 min at 72° C., and was terminated by a 5-min final extension at 72° C. The amplification of GAPDH mRNA, a constitutively and ubiquitously expressed gene, served as an internal standard for RT-PCR analysis. The 23-bp antisense primer 5′-[…]-3′ (SEQ ID NO:13) and the 23-bp sense primer 5′-[…]-3′ (SEQ ID NO:14) were used. Amplification was performed over 23 cycles, each involving 1 min at 94° C., 1.5 min at 59° C. and 2 min at 72° C.
Cells were collected by scraping, homogenized in sucrose buffer (20 mM Hepes/Tris, pH 7.4, containing 250 mM sucrose and 20 μg/ml of the protease inhibitor phenylmethylsulfonyl fluoride), then centrifuged at 3000 g for 10 min at 4° C. to remove debris. The supernatants were centrifuged at 100 000 g for 45 min at 4° C., and the pellets were resuspended in sucrose buffer for analysis of protein content by a modified Bradford assay (30). […]

[2] = tested on: P19 cells; test: Cardiac differentiation of P19 cell aggregates, scored by beating cell colonies; format: cell-based, mouse; conditions: for day by which beating cell colonies were present in all 24 independently growing cultures: aggregates treated 4 days with 10^−7 M OT or 0.5% DMSO, 24-well plate
Description: P19 cells were propagated and differentiated according to the procedures of Rudnicki and McBurney (28), with minor modifications. Undifferentiated cells were propagated in complete medium containing α-modified Eagle's minimal essential medium (α-MEM; GIBCO-BRL Burlington, Ontario, Canada) supplemented with 2.5% heat-inactivated fetal bovine serum, 7.5% heat-inactivated donor bovine serum (Cansera International, Rexdale, Ontario, Canada), and the antibiotics (GIBCO-BRL) penicillin G (50 U/ml) and streptomycin (50 μg/ml). The cultures were maintained at 37° C. in a humidified atmosphere of 5% CO2 and passaged every 2 days. The general protocol used for differentiation of P19 cells is depicted in FIG. 1.
(§2) Briefly, 0.25×10^6 cells were allowed to aggregate for 4 days in non-adhesive bacteriological grade petri dishes (6-cm diameter) containing 5 ml complete medium, in the presence of 0.5% (v/v) DMSO (Sigma Chemical Co., St. Louis, Mo.). At day 2 of aggregation, the inducing culture medium was replenished. At day 4, aggregates were transferred to tissue culture grade vessels (10-cm diameter dishes or 24/48-well plates), and cultured in complete medium in the absence of differentiation-inducing agent. Aggregation was also done in the absence of DMSO, and in the presence of 10^−7 M OT and/or 10^−7 OTA ([d(CH2)5^1,Tyr(Me)^2,Thr^4,Orn^8,Tyr-NH2^9]-vasotocin), both from Peninsula Laboratories Inc. (San Carlos, Calif.). The cell populations were analyzed at days 10-14 of the entire differentiation protocol, at a time cardiac cells normally beat synchronously.
P19 cells were subjected to the cardiac differentiation protocol depicted in Example 1, except that different concentrations of OT were used during the four days of aggregation. At day 4, aggregates were transferred to 24-well plates and scored for the appearance of beating cell colonies. In addition, cells were collected at day 14 for analysis of OTR or OT expression by RT-PCR. Cell aggregates were also treated with RA and/or T3.

[3] = tested on: ANP mRNA; test: RT-PCR analysis of ANP gene transcript in P19 cultures; format: cell-based, mouse; conditions: for ANP mRNA level compared to undifferentiated cells: day 14 of differentiation
Description: Total cellular RNA was extracted with TRIzol® Reagent (Invitrogen Life Technologies, Burlington, Ontario, Canada), and poly(A)^+mRNA was affinity purified from 200 μg of total RNA onto Oligotex® mRNA columns (Qiagen, Mississauga, Ontario, Canada), as per the manufacturers' instructions. […] Invitrogen). First-strand cDNA (5 μl) was then used for PCR amplification with OTR, ANP or GAPDH exon-specific oligonucleotide primers in a Robocycler Gradient 40 thermocycler (Stratagene, La Jolla, Calif.). Sequences of mouse OTR and ANP genes have been described (26, 34). Conditions for RT-PCR analysis of mouse OTR were adapted from Wagner et al. (6, 7). For all PCR studies the number of cycles used was within the linear range of amplification. The OTR sense and antisense primers were respectively the 22-bp [NT] ID NO:9) and the 23-bp [NT] ID NO:10). […] The ANP antisense and sense primers were respectively the 24-bp [NT] ID NO:11) and the 20-bp [NT] ID NO:12). […] The amplification of GAPDH mRNA, a constitutively and ubiquitously expressed gene, served as an internal standard for RT-PCR analysis. The 23-bp antisense primer [NT] ID NO:13) and the 23-bp sense primer [NT] ID NO:14) were used.

[4] = target: oxytocin receptor (OTR) of P19 mouse embryonal carcinoma cells (mouse) (UniProt P97926); test: cell-based or functional assay; conditions: scale: cultures with beating colonies
Chain of oxytocin receptor (OTR) of P19 mouse embryonal carcinoma cells (mouse) (P97926 whole entry): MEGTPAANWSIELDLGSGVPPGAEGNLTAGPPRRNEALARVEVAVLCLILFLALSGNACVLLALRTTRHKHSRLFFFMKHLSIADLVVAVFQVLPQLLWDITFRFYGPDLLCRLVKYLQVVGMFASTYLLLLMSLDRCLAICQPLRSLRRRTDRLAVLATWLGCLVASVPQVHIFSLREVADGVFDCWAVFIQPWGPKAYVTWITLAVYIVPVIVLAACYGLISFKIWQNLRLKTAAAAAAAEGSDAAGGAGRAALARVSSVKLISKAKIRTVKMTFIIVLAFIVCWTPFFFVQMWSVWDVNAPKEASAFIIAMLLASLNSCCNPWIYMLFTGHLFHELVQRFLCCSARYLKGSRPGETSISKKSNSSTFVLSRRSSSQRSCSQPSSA

[5] = tested on: P19 cells; test: OT production by induced P19 cells (RIA); format: cell-based, mouse; conditions: day 14, 4 h in serum-free medium
Description: P19 cells induced with DMSO or OT were cultured until day 14 in absence of inducer. Cells were washed carefully with PBS and incubated for 4 h in serum-free α-MEM supplemented with protease inhibiors (aprotinin, 30 μg/mL and soybean trypsin inhibitor (SBTI), 100 μg/mL). Cells and media were collected, extracted on Sep-Pak C18-cartridges (Waters Canada, Mississauga, Ontario), lyophilized, resuspended in a minimal volume of α-MEM and assayed by RIA as described (8). RIA was also done on undiluted serum combination used for P19 cell culture (1 part of fetal bovine serum and 3 parts of donor bovine serum).

[6] = tested on: P19 cells; test: Rhodamine123 retention in P19 cultures; format: cell-based, mouse; conditions: day 10 of differentiation, p<0.001
Description: For morphological examination, cells were grown directly onto the plastic surface of tissue culture vessels. For staining with rhodamine^123 (Sigma), day-4 aggregates were distributed in 24-well culture plates and grown until day 8. Then, dye was added to the culture medium at a final concentration of 1 μg/ml for 45 min, and afterwards, the cells were washed extensively with phosphate-buffered saline (PBS) and cultured for 48 h in the absence of the dye. Dye retained by cells in each well was measured by a fluorescence microplate reader (SPECTRA Max Gemini®, Molecular Devices, Sunnyvale, Calif.) at 505 nm for excitation and 534 nm for emission.

[7] = tested on: P19 cells; test: Mean diameter of P19 cell aggregates; format: cell-based, mouse; conditions: data not shown
Description: as §2

[8] = tested on: sarcomeric MHC and DHPR-alphal; test: Immunocytofluorescence of cardiac muscle markers in P19 cells; format: cell-based, mouse; conditions: for MHC and DHPR-alphal immunoreactive foci: aggregates treated day 0-4, stained day 14
Description: as §1

[9] = tested on: P19 cells; conditions: cited from earlier work

## [d(CH2)5^1,Tyr(Me)^2,Thr^4,Orn^8,Tyr-NH2^9]-vasotocin [OTA]
[1]; OT 10^−7 M + OTA 10^−7 M, day 14
  effect of OTA on OT-induced OTR upregulation: inhibited OT-induced OTR upregulation
[1]; day 14
  OTR expression (protein and mRNA) after treatment: did not upregulate OTR expression by itself
[1]
  early OTR induction (RT-PCR): no effect on OTR expression
[2]; 30 nM T3 + 10^−7 M OTA
  effect of OTA on T3-induced cardiac differentiation: abolished cardiac differentiation induced by T3; also recorded: completely inhibits P19 cell differentiation into cardiomyocytes
[2]; 10^−7 M OTA + 0.5% DMSO
  effect of OTA on DMSO-induced cardiac differentiation (beating cell colonies): abolished the cardiogenic action of DMSO; also recorded: completely inhibits P19 cell differentiation into cardiomyocytes
[2]; 10^−7 M OTA + 10^−7 M OT
  beating cells with OTA in combination with OT: no beating cells were seen
[2]; 10^−7 M OTA alone
  beating cells with OTA in place of OT: no beating cells were seen
[2]; RA 10^−7 M + OTA 10^−7 M
  effect of OTA on RA-induced cardiac differentiation: completely inhibits RA-induced cardiac differentiation; also recorded: completely inhibits P19 cell differentiation into cardiomyocytes
[3]; DMSO + OTA day 0-4, day 14
  effect of OTA on DMSO-induced ANP expression: not statistically significant
[3]; OT + OTA day 0-4, day 14, p<0.05
  effect of OTA on OT-induced ANP expression: prevented OT-induced upregulation of ANP expression

## oxytocin (from UniProt P01178 20-28) (peptide)
[4]
  production of beating cell colonies (P19 cardiomyocyte differentiation, 24-well plate): 24

## oxytocin [OT]
[5]
  OT release by induced P19 cells: release OT in their culture medium
[6]
  rhodamine123 retention, OT compared with DMSO: significantly higher after OT than DMSO treatment
[1]; day 14
  OTR expression (protein and mRNA) after treatment: increased OTR expression
[1]; differentiated populations at day 14
  OTR mRNA expression versus OT concentration: concentration-dependent
[1]
  early OTR induction (RT-PCR): most potent OTR inducer
[2]; 4 days of aggregation with different OT concentrations
  OT concentration range over which differentiation into beating cardiomyocytes is concentration-dependent: 10^−6 to 10^−9 M
[2]; P19 cell aggregates treated day 0-4 with 10^−7 M OT
  formation of rhythmically-beating cells: induced the formation of rhythmically-beating cells
[2]
  day by which beating cell colonies were present in all 24 independently growing cultures: 8 days
[2]; final OT concentration of 10^−12 M
  cardiac differentiation at the OT concentration supplied by serum in culture medium: not sufficient to induce cardiac differentiation
[7]
  reduction of mean aggregate diameter versus untreated counterparts: 1.5 fold
[8]
  MHC and DHPR-alphal immunoreactive foci: numerous, intense, immunoreactive foci
[8]; not presented
  6-day versus 4-day OT treatment of aggregates (myocyte immunological markers): no difference with the 4-day treatment
[3]
  ANP mRNA level compared to undifferentiated cells: significantly upregulated

## C[S+](C)[O-] [DMSO]
[5]
  OT release by induced P19 cells: release OT in their culture medium
[1]; day 14
  OTR expression (protein and mRNA) after treatment: increased OTR expression
[2]
  day by which beating cell colonies were present in all 24 independently growing cultures: 12 days
[7]
  reduction of mean aggregate diameter versus untreated counterparts: 1.5 fold
[8]
  MHC and DHPR-alphal immunoreactive foci: numerous, intense, immunoreactive foci
[3]
  ANP mRNA level compared to undifferentiated cells: at similar level
[9]; DMSO-induced
  efficiency of cardiac differentiation: ≤ 15%

## N[C@@H](Cc1cc(I)c(Oc2ccc(O)c(I)c2)c(I)c1)C(=O)O [T3, triiodothyronine]
[9]; Rodriguez et al., 1994
  optimal effective concentration for cardiomyogenic differentiation of P19 cells: 30 nM
